Key:
PDK1 = molecular target: T1, PDK1 (Homo sapiens, UniProt O15530); experiment: Test for the inhibition of PDK1 (flashplate, 33P-ATP); assay type: biochemical; settings: His6-PDK1 3.4 nM, 4 μM ATP, 30° C., 60 min
T1 construct: His6 (N)
Description: The experimental batches are carried out in a flashplate system with 384 wells/microtitration plate.
In each case, the PDK1 sample His6-PDK1(SEQ ID NO: 2)(1-50)(3.4 nM), the PDK1 substrate biotin-bA-bA-[…] (SEQ ID NO: 3) (400 nM), 4 μM ATP (with 0.2 μCi of ^33P-ATP/well) and the test substance in 50 μl of conventional experimental solution per well are incubated at 30° C. for 60 min. The test substances are employed in corresponding concentrations (if desired in a dilution series). The control is carried out without test substance. The reaction is stopped using standard methods and washed. The activity of the kinase is measured via the incorporated radioactivity in top count. In order to determine the non-specific kinase reaction (blank value), the experimental batches are carried out in the presence of 100 nM staurosporin.
The radioactivity (decompositions per minute) of the blank value (no use of test substance in the presence of staurosporin) is subtracted from all other radioactivity values. The controls (kinase activity without test substance) are set equal to 100 percent and all other radioactivity values (after subtracting the blank value) are expressed set in relation thereto (for example in % of the control).
IC50 values (50% inhibition) are determined with the aid of statistics programmes, such as, for example, RS1.

[1] = tested on: PDK1 kinase activity in PC3 cells (phospho-T308-PKB); experiment: Cellular testing of PDK1 kinase inhibitors in PC3 cells (Luminex, phospho-T308-PKB); assay type: cell-based; settings: Homo sapiens, PC-3, 0.5 h, 30 min with test substance, serum-free, phospho-T308-PKB by Luminex, read-out: IC50 [PC3 P-PKB Thr308]
Description: Method for the Cellular Testing of PDK1 Kinase Inhibitors in PC3 Cells.
The cellular assay for the determination of the PDK1 kinase activity is carried out as a Luminex assay in the 96-well format. PC3 cells are sown at 20,000 cells per well in 100 μl of medium (45% of […]/45% of Ham's F12/10% of FCS) and incubated on the following day for 30 min with a serial dilution of the test substance (7 concentrations) under serum-free conditions. The cells are subsequently lysed using 90 μl of lysis buffer (20 mM tris/HCl pH 8.0, 150 mM NaCl, 1% of NP40, 10% of glycerol, 1% of phosphatase inhibitor I, 1% of phosphatase inhibitor II, 0.1% of protease inhibitor cocktail III, 0.01% of benzonase) per well, and the lysates are separated off from insoluble cell constituents by means of centrifugation through a 96-well filter plate (0.65 μm). The lysates are incubated overnight at 4° C. with shaking with Luminex beads to which an anti-total PKB antibody is coupled. The detection is carried out on the following day by addition of a phospho-T308-PKB antibody and a species-specific […] secondary antibody. The detection of phospho-T308-PKB is carried out by measurement in a Luminex100 instrument by determination of 100 events per cavity in a measurement time of 60 sec. As pharmacological blank, the signals obtained from cells which have been treated with 10 μM staurosporin are subtracted from all other batches. The control value used for maximum phosphorylation of PKB on T308 are the signals from cells which have only been treated with the solvent (0.3% of DMSO). The values of the batches treated with test substance are calculated therefrom as percentage of control, and IC50 values are determined by means of RS1.

T1 sequence (O15530 51-556): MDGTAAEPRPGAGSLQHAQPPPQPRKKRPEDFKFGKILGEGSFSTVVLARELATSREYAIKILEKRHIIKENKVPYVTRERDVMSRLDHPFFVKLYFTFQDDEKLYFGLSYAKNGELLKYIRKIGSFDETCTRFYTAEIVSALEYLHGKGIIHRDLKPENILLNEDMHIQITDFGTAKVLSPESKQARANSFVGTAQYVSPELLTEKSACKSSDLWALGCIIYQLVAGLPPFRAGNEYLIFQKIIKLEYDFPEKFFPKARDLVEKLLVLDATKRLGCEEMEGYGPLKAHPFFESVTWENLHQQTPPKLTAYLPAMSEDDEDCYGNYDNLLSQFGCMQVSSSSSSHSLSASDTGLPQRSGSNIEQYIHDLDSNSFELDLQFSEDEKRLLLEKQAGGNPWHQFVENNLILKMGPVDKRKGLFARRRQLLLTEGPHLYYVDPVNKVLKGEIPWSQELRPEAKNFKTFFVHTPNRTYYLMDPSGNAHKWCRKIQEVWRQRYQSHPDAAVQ

## CCc1cc(-c2c[nH]c3ncc(-c4cnn(CC(=O)NC)c4)cc23)nc(N)n1 [Compound A51, 2-{4-[3-(2-Amino-6-ethylpyrimidin-4-yl)-1H-pyrrolo[2,3-b]pyridin-5-yl]pyrazol-1-yl}-N-methylacetamide]
PDK1
  IC50: 10 to 1000 nM
[1]
  IC50: 10 to 20 µM

## CCCCc1cc(-c2c[nH]c3ncc(-c4cnn(CCN(C)C)c4)cc23)nc(N)n1 [Compound A85, 4-Butyl-6-{5-[1-(2-dimethylaminoethyl)-1H-pyrazol-4-yl]-1H-pyrrolo[2,3-b]-pyridin-3-yl}pyrimidin-2-ylamine]
PDK1
  IC50: 10 to 1000 nM
[1]
  IC50: 1 to 10 µM

## CCCCc1cc(-c2c[nH]c3ncc(-c4cnn(C5CCNCC5)c4)cc23)nc(N)n1 [Compound A87, 4-Butyl-6-[5-(1-piperidin-4-yl-1H-pyrazol-4-yl)-1H-pyrrolo[2,3-b]pyridin-3-yl]-pyrimidin-2-ylamine]
PDK1
  IC50: 10 to 1000 nM
[1]
  IC50: 1 to 10 µM

## CC(C)n1cc(-c2cnc3[nH]cc(-c4cc(C5(O)CCN(C(=O)OCc6ccccc6)CC5)nc(N)n4)c3c2)cn1 [Compound A122, 4-{2-Amino-6-[5-(1-isopropyl-1H-pyrazol-4-yl)-1H-pyrrolo[2,3-b]pyridin-3-yl]-pyrimidin-4-yl}-4-hydroxypiperidine-1-carboxylic acid benzyl ester]
PDK1
  IC50: 10 to 1000 nM
[1]
  IC50: 10 to 20 µM

## Nc1nc(-c2c[nH]c3ncccc23)cc(C2CCCCC2)n1 [Compound A105, 4-Cyclohexyl-6-(1H-pyrrolo[2,3-b]pyridin-3-yl)pyrimidin-2-ylamine]
PDK1
  IC50: 10 to 1000 nM
[1]
  IC50: 10 to 20 µM

## CC(C)n1cc(-c2cnc3[nH]cc(-c4cc(C5(O)CCNCC5)nc(N)n4)c3c2)cn1 [Compound A125, 4-{2-Amino-6-[5-(1-isopropyl-1H-pyrazol-4-yl)-1H-pyrrolo[2,3-b]pyridin-3-yl]-pyrimidin-4-yl}piperidin-4-ol]
PDK1
  IC50: 1000 to 10000 nM
[1]
  IC50: 10 to 20 µM

## CCc1cc(-c2c[nH]c3ncc(-c4cnn(CC(=O)NC5CCN(C)CC5)c4)cc23)nc(N)n1 [Compound A30, 2-{4-[3-(2-Amino-6-ethylpyrimidin-4-yl)-1H-pyrrolo[2,3-b]pyridin-5-yl]pyrazol-1-yl}-N-(1-methylpiperidin-4-yl)acetamide]
PDK1
  IC50: 10 to 1000 nM
[1]
  IC50: 10 to 20 µM

## CC(C)n1cc(-c2cnc3[nH]cc(-c4cc(C5(O)CCCC5)nc(N)n4)c3c2)cn1 [Compound A54, 1-{2-Amino-6-[5-(1-isopropyl-1H-pyrazol-4-yl)-1H-pyrrolo[2,3-b]pyridin-3-yl]-pyrimidin-4-yl}cyclopentanol]
PDK1
  IC50: 10 to 1000 nM
[1]
  IC50: 10 to 20 µM

## Nc1nc(-c2c[nH]c3ncccc23)cc(C2(O)CCN(C(=O)OCc3ccccc3)CC2)n1 [Compound A113, 4-[2-Amino-6-(1H-pyrrolo[2,3-b]pyridin-3-yl)pyrimidin-4-yl]-4-hydroxypiperidine-1-carboxylic acid benzyl ester]
PDK1
  IC50: 1000 to 10000 nM
[1]
  IC50: 1 to 10 µM

## CN1CCN(CCc2cc(-c3c[nH]c4ncccc34)nc(N)n2)CC1 [Compound A50, 4-[2-(4-Methylpiperazin-1-yl)ethyl]-6-(1H-pyrrolo[2,3-b]pyridin-3-yl)pyrimidin-2-ylamine]
PDK1
  IC50: 1000 to 10000 nM
[1]
  IC50: 10 to 20 µM

## CC(C)n1cc(-c2cnc3[nH]cc(-c4cc(CCC(=O)N(C)C)nc(N)n4)c3c2)cn1 [Compound A101, 3-{2-Amino-6-[5-(1-isopropyl-1H-pyrazol-4-yl)-1H-pyrrolo[2,3-b]pyridin-3-yl]-pyrimidin-4-yl}-N,N-dimethylpropionamide]
PDK1
  IC50: 10 to 1000 nM
[1]
  IC50: 10 to 20 µM

## CCc1cc(-c2c[nH]c3ncc(-c4cnn(CC(=O)N(C)C)c4)cc23)nc(N)n1 [Compound A34, 2-{4-[3-(2-Amino-6-ethylpyrimidin-4-yl)-1H-pyrrolo[2,3-b]pyridin-5-yl]pyrazol-1-yl}-N,N-dimethylacetamide]
PDK1
  IC50: 10 to 1000 nM
[1]
  IC50: 10 to 20 µM

## CC(O)Cc1cc(-c2c[nH]c3ncc(-c4cnn(C(C)C)c4)cc23)nc(N)n1 (stereo not shown) [Compound A36, 1-{2-Amino-6-[5-(1-isopropyl-1H-pyrazol-4-yl)-1H-pyrrolo[2,3-b]pyridin-3-yl]-pyrimidin-4-yl}propan-2-ol]
PDK1
  IC50: 10 to 1000 nM
[1]
  IC50: 10 to 20 µM

## CCc1cc(-c2c[nH]c3ncc(-c4cnn(CC5CCNC5)c4)cc23)nc(N)n1 (stereo not shown) [Compound A9]
PDK1
  IC50: 10 to 1000 nM
[1]
  IC50: 10 to 20 µM

## CCc1cc(-c2c[nH]c3ncc(-c4ccc(CN)cc4)cc23)nc(N)n1 [Compound A81, 4-[5-(4-Aminomethylphenyl)-1H-pyrrolo[2,3-b]pyridin-3-yl]-6-ethylpyrimidin-2-ylamine]
PDK1
  IC50: 10 to 1000 nM
[1]
  IC50: 1 to 10 µM

## CCC(O)c1cc(-c2c[nH]c3ncc(-c4cnn(C(C)C)c4)cc23)nc(N)n1 (stereo not shown) [Compound A103, 1-{2-Amino-6-[5-(1-isopropyl-1H-pyrazol-4-yl)-1H-pyrrolo[2,3-b]pyridin-3-yl]-pyrimidin-4-yl}propan-1-ol]
PDK1
  IC50: 10 to 1000 nM
[1]
  IC50: 10 to 20 µM

## CC(C)N1CCC(O)(c2cc(-c3c[nH]c4ncc(-c5cnn(C(C)C)c5)cc34)nc(N)n2)CC1 [Compound A114, 4-{2-Amino-6-[5-(1-isopropyl-1H-pyrazol-4-yl)-1H-pyrrolo[2,3-b]pyridin-3-yl]-pyrimidin-4-yl}-1-isopropylpiperidin-4-ol]
PDK1
  IC50: 10 to 1000 nM
[1]
  IC50: 10 to 20 µM

## CCCC(O)c1cc(-c2c[nH]c3ncccc23)nc(N)n1 (stereo not shown) [Compound A48, 1-[2-Amino-6-(1H-pyrrolo[2,3-b]pyridin-3-yl)pyrimidin-4-yl]butan-1-ol]
PDK1
  IC50: 1000 to 10000 nM
[1]
  IC50: 10 to 20 µM

## CCCCc1cc(-c2c[nH]c3ncc(-c4cnn(CCO)c4)cc23)nc(N)n1 [Compound A88, 2-{4-[3-(2-Amino-6-butylpyrimidin-4-yl)-1H-pyrrolo[2,3-b]pyridin-5-yl]pyrazol-1-yl}ethanol]
PDK1
  IC50: 10 to 1000 nM
[1]
  IC50: 1 to 10 µM

## CC(C)CC(O)c1cc(-c2c[nH]c3ncc(-c4cnn(C(C)C)c4)cc23)nc(N)n1 (stereo not shown) [Compound A104, 1-{2-Amino-6-[5-(1-isopropyl-1H-pyrazol-4-yl)-1H-pyrrolo[2,3-b]pyridin-3-yl]-pyrimidin-4-yl}-3-methylbutan-1-ol]
PDK1
  IC50: 10 to 1000 nM
[1]
  IC50: 1 to 10 µM

## CC(C)n1cc(-c2cnc3[nH]cc(-c4cc(C5(O)CCN(CCc6ccc(F)cc6)CC5)nc(N)n4)c3c2)cn1 [Compound A116, 4-{2-Amino-6-[5-(1-isopropyl-1H-pyrazol-4-yl)-1H-pyrrolo[2,3-b]pyridin-3-yl]-pyrimidin-4-yl}-1-[2-(4-fluorophenyl)ethyl]piperidin-4-ol]
PDK1
  IC50: 10 to 1000 nM
[1]
  IC50: 10 to 20 µM

## CCc1cc(-c2c[nH]c3ncc(-c4cnn(CC(=O)N5CCN(C)CC5)c4)cc23)nc(N)n1 [Compound A29, 2-{4-[3-(2-Amino-6-ethylpyrimidin-4-yl)-1H-pyrrolo[2,3-b]pyridin-5-yl]pyrazol-1-yl}-1-(4-methylpiperazin-1-yl)ethanone]
PDK1
  IC50: 10 to 1000 nM
[1]
  IC50: 10 to 20 µM

## Nc1nc(CCN2CCOCC2)cc(-c2c[nH]c3ncccc23)n1 [Compound A49, 4-(2-Morpholin-4-ylethyl)-6-(1H-pyrrolo[2,3-b]pyridin-3-yl)pyrimidin-2-ylamine]
PDK1
  IC50: 1000 to 10000 nM
[1]
  IC50: 10 to 20 µM

## CCc1cc(-c2c[nH]c3ncc(-c4ncc(-c5cccc(N)c5)o4)cc23)nc(N)n1 [Compound A42, 4-{5-[5-(3-Aminophenyl)oxazol-2-yl]-1H-pyrrolo[2,3-b]pyridin-3-yl}-6-ethylpyrimidin-2-ylamine]
PDK1
  IC50: 1000 to 10000 nM
[1]
  IC50: 10 to 20 µM

## CCc1cc(-c2c[nH]c3ncc(-c4cnn(CC(=O)NC5CC5)c4)cc23)nc(N)n1 [Compound A52, 2-{4-[3-(2-Amino-6-ethylpyrimidin-4-yl)-1H-pyrrolo[2,3-b]pyridin-5-yl]pyrazol-1-yl}-N-cyclopropylacetamide]
PDK1
  IC50: 10 to 1000 nM
[1]
  IC50: 10 to 20 µM

## CC(=O)NCCCc1cc(-c2c[nH]c3ncc(-c4cnn(C(C)C)c4)cc23)nc(N)n1 [Compound A97, N-(3-{2-Amino-6-[5-(1-isopropyl-1H-pyrazol-4-yl)-1H-pyrrolo[2,3-b]pyridin-3-yl]pyrimidin-4-yl}propyl)acetamide]
PDK1
  IC50: 10 to 1000 nM
[1]
  IC50: 10 to 20 µM

Source: patent publication US8420820B2, “Pyrrolopyridinylpyrimidin-2-ylamine derivatives” (Merck Patent GmbH, priority 2008, dated 2013)
